{"source": "patent US6617114B1", "about": "“Identification of drug complementary combinatorial libraries” (priority 1996, dated 2003)", "key": {"E. coli ProRS [1]": {"biological_target": "T1, E. coli ProRS (Escherichia coli, UniProt P16659)", "test": "ProRS charging assay", "format": "biochemical", "experimental": "One question that could be answered with peptides designed from these phage is whether or not they are directed to random regions on the target protein or if they target active sites and regions of other biological interactions. The peptides used in the above ELSAs were added to a charging assay to assess its affects on enzymatic activity of the target."}, "E. coli ProRS [2]": {"biological_target": "T1, E. coli ProRS", "test": "ELSA of ProRS surrogate ligand", "format": "binding", "settings": "tested on ProRS, GST-src SH3, GST, GST-UL44, TyrRS, GST-MDM2", "experimental": "(§1) Target protein was immobilized in microtiter wells by incubating 0.5-2.0 μg per well in 100 μl of 0.1 M NaHCO3 overnight at 4° C. […] During the 1 hour blocking period, the SA-AP:surrogate ligand conjugate was prepared by mixing 2 μg SA-AP and 50 pmol biotinylated surrogate ligand for each well of target protein. (This corresponds to a 1:1 ratio of biotinylated peptide to biotin binding sites.) The mixture was incubated at room temperature for 15-20 minutes and then diluted with Tris-buffered saline-TWEEN-20 detergent (TBST) 10 mM Tris-HCl, pH 8.0, 150 mM NaCl, 0.05% TWEEN-20 detergent such that there was 100 μl of conjugate per well. For lower concentrations of surrogate ligand, an unrelated biotinylated peptide was titrated in to keep the total amount of biotinylated peptide at 50 pmol/well and total SA-AP at 2 μg/well.\n(§2) After blocking, the wells were washed once with 200 μl TBST. The surrogate ligand:SA-AP conjugate was then added (100 μl/well) and incubated at room temperature for 2 hours. The wells were then washed 5 times with 300 μl TBST using a BioRad 1575 Immunowash plate washer. The assay was developed by adding 100 μl of pNPP and incubating at room temperature for 5-10 minutes. The absorbance was read at 405 nm.\n(§3) A peptide corresponding to the most often isolated phage was synthesized and used in an ELSA as described in example 1. […]"}, "TyrRS": {"biological_target": "TyrRS (Haemophilus influenzae, UniProt P43836)", "sequence (P43836 whole entry)": "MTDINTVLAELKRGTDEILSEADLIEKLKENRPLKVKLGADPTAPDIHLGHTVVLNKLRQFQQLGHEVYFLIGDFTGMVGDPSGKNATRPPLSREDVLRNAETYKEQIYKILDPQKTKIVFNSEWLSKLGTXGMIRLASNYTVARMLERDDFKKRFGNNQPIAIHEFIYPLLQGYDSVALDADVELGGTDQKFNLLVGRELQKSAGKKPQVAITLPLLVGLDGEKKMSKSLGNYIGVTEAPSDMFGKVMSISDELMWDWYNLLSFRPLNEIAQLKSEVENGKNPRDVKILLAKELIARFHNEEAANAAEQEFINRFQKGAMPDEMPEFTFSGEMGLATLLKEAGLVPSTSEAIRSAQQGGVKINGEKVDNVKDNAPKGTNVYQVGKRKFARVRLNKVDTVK", "test": "ELSA of TyrRS surrogate ligand", "format": "binding", "settings": "tested on TyrRS, GST-src SH3, GST, GST-UL44, GST-MDM2, ProRS", "experimental": "as §1\nas §2, with “nm. […]” for “nm.”\nThe ability of the compound to inhibit the binding of the TyrRS1B peptide to TyrRS was determined. […]"}, "E. coli ProRS [3]": {"biological_target": "T2, E. coli ProRS (Escherichia coli, UniProt P16659)", "T2 sequence (P16659 whole entry, looked up)": "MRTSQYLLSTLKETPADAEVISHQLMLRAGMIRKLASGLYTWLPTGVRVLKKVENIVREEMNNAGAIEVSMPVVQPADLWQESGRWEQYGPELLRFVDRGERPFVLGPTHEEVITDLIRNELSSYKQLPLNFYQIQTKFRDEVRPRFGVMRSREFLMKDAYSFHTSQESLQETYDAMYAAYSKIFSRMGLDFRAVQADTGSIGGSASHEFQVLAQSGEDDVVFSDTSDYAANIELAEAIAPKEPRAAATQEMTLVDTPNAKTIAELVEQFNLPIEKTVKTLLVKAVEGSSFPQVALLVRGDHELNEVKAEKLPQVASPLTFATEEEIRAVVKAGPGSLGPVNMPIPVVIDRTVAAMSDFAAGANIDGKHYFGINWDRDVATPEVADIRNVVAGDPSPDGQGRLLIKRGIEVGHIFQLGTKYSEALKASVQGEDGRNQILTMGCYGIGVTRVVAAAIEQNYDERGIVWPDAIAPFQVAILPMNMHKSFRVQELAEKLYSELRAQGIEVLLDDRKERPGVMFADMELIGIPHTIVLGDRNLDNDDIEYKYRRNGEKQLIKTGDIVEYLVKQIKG", "test": "ELSA of ProRS surrogate ligand", "format": "binding", "settings": "self-competition", "experimental": "as §1, §2, §3"}}, "note": "Where a SMILES comes first, the peptide text is derived from it. Bridges are numbered along the chain shown (N, C = ends).", "data": [{"molecule": "CC[C@H](C)[C@@H]1NC(=O)[C@H](C)NC(=O)[C@@H](NC(=O)[C@@H](NC(=O)[C@H](CCCNC(=N)N)NC(=O)[C@@H](N)CO)C(C)C)CSSC[C@@H](C(=O)N[C@@H](CO)C(=O)N[C@@H](CCCNC(=N)N)C(=O)O)NC(=O)CNC(=O)[C@H](CC(=O)O)NC(=O)[C@H](CC(C)C)NC(=O)[C@H](CC(=O)O)NC(=O)[C@@H]2CCCN2C(=O)[C@H](Cc2c[nH]c3ccccc23)NC1=O", "note": "[ProRS BioKey, S R V C A I W P D L D G C S R] (H-SRVCAIWPDLDGCSR-OH; disulfide 4-13; N-terminus and C-terminus assumed)", "values": [{"measurement": "time of preincubation with the peptide for 50% inhibition", "setting": "E. coli ProRS [1]; 530 μM peptide", "result": "about 1.5 hours"}, {"measurement": "mode of inhibition", "setting": "E. coli ProRS [1]; charging assay", "result": "competitive in respect to proline"}, {"measurement": "specificity of binding of biotinylated peptide", "setting": "E. coli ProRS [2]", "result": "specific for E. coli ProRS"}]}, {"molecule": "L Y S W P D E Q Y E R P (LYSWPDEQYERP) [Peptide 1]", "values": [{"measurement": "specificity of binding of biotinylated peptide", "setting": "TyrRS", "result": "binds to TyrRS specifically"}]}, {"molecule": "S R V C A I W P D L D G C S R (SRVCAIWPDLDGCSR) [non-biotinylated ProRS peptide]", "values": [{"measurement": "disruption of biotinylated ProRS peptide binding", "setting": "E. coli ProRS [3]", "result": "disrupted in a dose dependent fashion"}]}]}
